# Laboratory results published in US20120196899A1, “METHODS AND PRODUCTS FOR TREATING INFLAMMATION” (Rock Creek Pharmaceuticals, Inc., priority 2010, published 2012).
# Several values for one entry are separate records, joined by “and”; a condition that tells them apart may be missing. Equal entries are not always repeated.
# Legend:
# 7W CHO cells = assay: Toxicity in 7W CHO cells; type: cell-based
# [1] = Clinical chemistry, day 15; type: in vivo, Sprague-Dawley rats
# Source text: On day 15, urine was collected on all surviving animals for urinalysis. The animals were euthanized and bled via cardiac puncture. Blood was collected for hematology, clinical chemistry, and coagulation analysis. Tissues were collected, weighed, and stored in 10% neutral-buffered formalin for possible future analysis.
# [2] = anatabine 0.1 mg/kg, female rats, individual animals
# [3] = anatabine 0.1 mg/kg, male rats, individual animals
# [4] = anatabine 0.75 mg/kg, female rats, individual animals
smiles,measurement,setting,value
"C1=CCC(c2cccnc2)NC1 (racemic) [Anatabine, 1,2,3,6-tetrahydro-[2,3′]bipyridinyl]",toxicity,7W CHO cells,No toxicity was observed
same,CHLORIDE,"[1]; Mean, F, 0.1 mg/kg",100.20 mEq/L
same,CHOLESTEROL,"[1]; Mean, F, 0.1 mg/kg",76.40 mg/dL
same,CREATININE,"[1]; Mean, F, 0.1 mg/kg",0.44 mg/dL
same,GLUCOSE,"[1]; Mean, F, 0.1 mg/kg",207.60 mg/dL
same,PHOSPHORUS,"[1]; Mean, F, 0.1 mg/kg",8.08 mg/dL
same,POTASSIUM,"[1]; Mean, F, 0.1 mg/kg",5.82 mEq/L
same,SODIUM,"[1]; Mean, F, 0.1 mg/kg",146.80 mEq/L
same,CHLORIDE,"[1]; Mean, F, 0.75 mg/kg",98.00 mEq/L
same,CHOLESTEROL,"[1]; Mean, F, 0.75 mg/kg",69.80 mg/dL
same,CREATININE,"[1]; Mean, F, 0.75 mg/kg",0.44 mg/dL
same,GLUCOSE,"[1]; Mean, F, 0.75 mg/kg",220.80 mg/dL
same,PHOSPHORUS,"[1]; Mean, F, 0.75 mg/kg",8.64 mg/dL
same,POTASSIUM,"[1]; Mean, F, 0.75 mg/kg",5.88 mEq/L
same,SODIUM,"[1]; Mean, F, 0.75 mg/kg",145.00 mEq/L
same,CHLORIDE,"[1]; Mean, M, 0.1 mg/kg",98.00 mEq/L
same,CHOLESTEROL,"[1]; Mean, M, 0.1 mg/kg",67.20 mg/dL
same,CREATININE,"[1]; Mean, M, 0.1 mg/kg",0.36 mg/dL
same,PHOSPHORUS,"[1]; Mean, M, 0.1 mg/kg",10.82 mg/dL
same,POTASSIUM,"[1]; Mean, M, 0.1 mg/kg",6.40 mEq/L
same,SODIUM,"[1]; Mean, M, 0.1 mg/kg",146.20 mEq/L
same,CHLORIDE,"[1]; Mean, M, 0.75 mg/kg",98.60 mEq/L
same,CHOLESTEROL,"[1]; Mean, M, 0.75 mg/kg",62.80 mg/dL
same,CREATININE,"[1]; Mean, M, 0.75 mg/kg",0.36 mg/dL
same,GLUCOSE,"[1]; Mean, M, 0.75 mg/kg",202.00 mg/dL
same,PHOSPHORUS,"[1]; Mean, M, 0.75 mg/kg",10.92 mg/dL
same,POTASSIUM,"[1]; Mean, M, 0.75 mg/kg",6.12 mEq/L
same,SODIUM,"[1]; Mean, M, 0.75 mg/kg",147.80 mEq/L
same,ALBUMIN,[1]; [2],3.6 g/dL (3×) and 3.5 g/dL and 3.8 g/dL
same,ALK PHOSPHATASE,[1]; [2],261 IU/L and 140 IU/L and 209 IU/L and 412 IU/L and 220 IU/L
same,ALT,[1]; [2],57 IU/L and 43 IU/L and 47 IU/L and 62 IU/L and 39 IU/L
same,AST,[1]; [2],78 IU/L and 69 IU/L and 70 IU/L and 86 IU/L and 82 IU/L
same,BUN,[1]; [2],21 mg/dL (2×) and 19 mg/dL (3×)
same,CHLORIDE,[1]; [2],99 mEq/L and 102 mEq/L (2×) and 97 mEq/L and 101 mEq/L
same,CHOLESTEROL,[1]; [2],90 mg/dL and 74 mg/dL and 65 mg/dL and 66 mg/dL and 87 mg/dL
same,CREATININE,[1]; [2],0.4 mg/dL (3×) and 0.5 mg/dL (2×)
same,DIR BILIRUBIN,[1]; [2],0 mg/dL
same,GLOBULIN,[1]; [2],3.1 g/dL (3×) and 3 g/dL
same,GLUCOSE,[1]; [2],224 mg/dL and 170 mg/dL and 227 mg/dL and 220 mg/dL and 197 mg/dL
same,PHOSPHORUS,[1]; [2],8.5 mg/dL (2×) and 8.2 mg/dL and 7.4 mg/dL and 7.8 mg/dL
same,POTASSIUM,[1]; [2],5.4 mEq/L and 6.3 mEq/L and 5.2 mEq/L and 5.5 mEq/L and 6.7 mEq/L
same,SODIUM,[1]; [2],147 mEq/L and 145 mEq/L
same,TOT BILIRUBIN,[1]; [2],0 mg/dL
same,TOT PROTEIN,[1]; [2],6.7 g/dL (2×) and 6.3 g/dL and 6.9 g/dL and 6.6 g/dL
same,ALBUMIN,[1]; [3],3.4 g/dL (2×) and 3.2 g/dL and 3.1 g/dL (2×)
same,ALK PHOSPHATASE,[1]; [3],470 IU/L and 227 IU/L and 364 IU/L and 358 IU/L and 618 IU/L
same,ALT,[1]; [3],92 IU/L and 65 IU/L and 74 IU/L and 44 IU/L and 78 IU/L
same,AST,[1]; [3],97 IU/L and 99 IU/L and 93 IU/L and 85 IU/L and 106 IU/L
same,BUN,[1]; [3],18 mg/dL (2×) and 21 mg/dL and 14 mg/dL and 19 mg/dL
same,CHLORIDE,[1]; [3],98 mEq/L and 97 mEq/L (2×) and 99 mEq/L (2×)
same,CHOLESTEROL,[1]; [3],65 mg/dL and 64 mg/dL and 75 mg/dL and 56 mg/dL and 76 mg/dL
same,CREATININE,[1]; [3],0.4 mg/dL (3×) and 0.3 mg/dL (2×)
same,DIR BILIRUBIN,[1]; [3],0 mg/dL
same,GLOBULIN,[1]; [3],2.9 g/dL (2×) and 2.6 g/dL and 3.1 g/dL
same,GLUCOSE,[1]; [3],258 mg/dL and 214 mg/dL and 194 mg/dL and 210 mg/dL
same,PHOSPHORUS,[1]; [3],10.3 mg/dL (2×) and 10.8 mg/dL
same,POTASSIUM,[1]; [3],5.9 mEq/L and 6.5 mEq/L and 6.6 mEq/L and 6.9 mEq/L and 6.1 mEq/L
same,SODIUM,[1]; [3],144 mEq/L and 147 mEq/L
same,TOT BILIRUBIN,[1]; [3],0 mg/dL
same,TOT PROTEIN,[1]; [3],6.3 g/dL (2×) and 5.8 g/dL and 5.9 g/dL and 6.2 g/dL
same,ALBUMIN,[1]; [4],3.5 g/dL (2×) and 3.6 g/dL (2×) and 3.4 g/dL
same,ALK PHOSPHATASE,[1]; [4],123 IU/L and 142 IU/L and 235 IU/L and 130 IU/L and 160 IU/L
same,ALT,[1]; [4],63 IU/L and 49 IU/L (2×) and 55 IU/L and 57 IU/L
